The values that follow come from article PMC8400920, “Metabolism of Diterpenoids Derived from the Bark of Cinnamomum cassia in Human Liver Microsomes” (Pharmaceutics, 2021).

This data set has as its system human liver microsomes (HLMs). The experiment in a line: Identification of phase I metabolites of AHC in HLMs. The format is in vitro ADME. The note with it: 10 µM AHC, 1 mg/mL pooled HLMs, with NGS, 60 min. The protocol: To identify AHC metabolites, 10 µM AHC was incubated with 1 mg/mL pooled HLMs in 0.1 M potassium phosphate buffer (pH 7.4) at 37 °C for 60 min. The reactions were initiated by adding NGS to obtain a final incubation volume of 200 µL. All experiments were conducted in triplicate. The reaction was terminated by adding 400 µL of 100% ACN, and the mixture was vortexed and then centrifuged for 10 min at 15,700× g. Next, the supernatant (550 µL) was transferred to a new tube and dried using a speed-vac concentrator with a cold trap (Labconco, Kansas, MO, USA). Subsequently, the dried samples were reconstituted in 100 µL of 20% MeOH containing 0.1% formic acid before centrifugation at 15,700× g for 10 min. Finally, the mixture was injected into a liquid chromatograph with a tandem mass spectrometer for analysis. […]
The mobile phase consisted of 100% water with 0.1% formic acid (mobile phase A) and 100% ACN with 0.1% formic acid (mobile phase B). […] Data were analyzed using Xcalibur version 4.0 software (Thermo Fisher Scientific, Waltham, MA, USA).
To identify the phase I metabolites of AHC in HLMs, 10 µM AHC was incubated in pooled HLMs without or with the NGS for 60 min. […] The extracted ion chromatograms of the generated AHC metabolites are shown in Figure 2A,B. AHC was detected as a deprotonated ion, [M − H]^−, at m/z 407 and 15.6 min in the negative ion mode. […]

For `CC(=O)O[C@@H]1[C@@H](C)CC[C@]2(O)[C@]3(C)CC(=O)O[C@]12[C@@]1(O)C(C)=C(C(C)C)C[C@@]31O` [AHC, anhydrocinnzeylanine], the “number of metabolites produced in HLMs” value came to 20.
